Measurements from US20220144823A1, “PYRAZOLOPYRIDINE DERIVATIVES AS INHIBITORS OF PASK” (Galapagos NV, priority 2019, published 2022).

Biological target: T1, autophosphorylation of PASK at position Thr307 in Hek293 cells overexpressing PASK (Homo sapiens, UniProt Q96RG2)
T1 construct: expressed in transfected cells; host or cells: Hek293
Experiment: PASK autophosphorylation ELISA assay
Format: cell-based
Details: 24 h, ELISA readout
Method in brief: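 Hek293 cells transiently transfected with full-length wild-type PASK-FLAG, treated 24 h in serum-free DMEM with an 8-point 1/3 dilution series from 30 μM final (0.3% DMSO). Lysates captured on anti-FLAG ELISA plates, Thr307 phosphorylation detected with phospho-Akt substrate (RXXS*/T*) antibody and HRP chemiluminescence; IC50 from percentage inhibition curves.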

T1 sequence (Q96RG2 with tags, fused parts or gaps): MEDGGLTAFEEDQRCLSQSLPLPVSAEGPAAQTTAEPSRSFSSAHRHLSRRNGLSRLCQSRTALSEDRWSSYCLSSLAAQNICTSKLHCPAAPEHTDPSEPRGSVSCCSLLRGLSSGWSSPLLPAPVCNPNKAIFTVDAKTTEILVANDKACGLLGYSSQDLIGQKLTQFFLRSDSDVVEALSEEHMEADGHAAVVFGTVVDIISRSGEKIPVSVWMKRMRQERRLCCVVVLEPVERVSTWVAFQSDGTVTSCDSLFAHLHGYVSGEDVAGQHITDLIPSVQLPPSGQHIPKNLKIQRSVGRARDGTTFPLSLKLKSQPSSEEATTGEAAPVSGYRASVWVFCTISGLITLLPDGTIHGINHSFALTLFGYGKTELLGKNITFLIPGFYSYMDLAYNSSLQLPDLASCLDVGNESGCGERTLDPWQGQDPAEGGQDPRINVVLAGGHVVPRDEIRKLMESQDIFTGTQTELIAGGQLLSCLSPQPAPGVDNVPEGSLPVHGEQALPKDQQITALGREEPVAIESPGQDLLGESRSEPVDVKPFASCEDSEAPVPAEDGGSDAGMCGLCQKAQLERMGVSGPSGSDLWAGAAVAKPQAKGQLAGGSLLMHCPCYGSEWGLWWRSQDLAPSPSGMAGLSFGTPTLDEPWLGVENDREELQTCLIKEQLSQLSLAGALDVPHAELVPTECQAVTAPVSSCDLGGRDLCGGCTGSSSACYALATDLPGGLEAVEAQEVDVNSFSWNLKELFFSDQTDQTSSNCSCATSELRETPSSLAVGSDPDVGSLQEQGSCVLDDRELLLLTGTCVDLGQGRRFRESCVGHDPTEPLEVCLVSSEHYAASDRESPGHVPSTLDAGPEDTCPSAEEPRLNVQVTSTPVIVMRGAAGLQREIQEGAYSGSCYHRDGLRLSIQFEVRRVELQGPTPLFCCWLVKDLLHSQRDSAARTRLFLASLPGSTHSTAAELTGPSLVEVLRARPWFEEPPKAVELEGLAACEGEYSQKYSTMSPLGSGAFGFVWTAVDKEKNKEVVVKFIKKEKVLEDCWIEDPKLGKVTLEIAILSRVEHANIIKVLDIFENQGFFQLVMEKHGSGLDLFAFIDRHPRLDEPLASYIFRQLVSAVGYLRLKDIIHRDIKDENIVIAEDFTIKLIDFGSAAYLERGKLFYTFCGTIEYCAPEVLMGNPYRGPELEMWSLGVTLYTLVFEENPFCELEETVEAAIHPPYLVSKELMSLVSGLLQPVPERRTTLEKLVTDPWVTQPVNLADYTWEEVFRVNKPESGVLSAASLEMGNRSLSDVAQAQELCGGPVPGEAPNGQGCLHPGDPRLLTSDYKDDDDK

IC50: 500 to 1000 nM
Compound: Cc1nn(C(C)C)c(C)c1-c1cnn2ccc(-c3cc(C(=O)O)co3)cc12 [Cpd 18, 5-[3-(1-isopropyl-3,5-dimethyl-pyrazol-4-yl)pyrazolo[1,5-a]pyridin-5-yl]furan-3-carboxylic acid]
